Test results reported in PubChem BioAssay (NCI).
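Following 48 hours of exposure in 96-well plates, responses at five concentrations were used to interpolate endpoints linearly. GI50 = concentration required for 50% inhibition of growth. At the TGI there is no net growth.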

Experiments:
Test in all cases: growth of human tumour cells (NCI), 48 h
HT29 colon = system: HT29 colon
HS 578T breast = system: HS 578T breast
SNB-75 CNS = system: SNB-75 CNS
RPMI-8226 leukemia = system: RPMI-8226 leukemia
CCRF-CEM leukemia = system: CCRF-CEM leukemia
MOLT-4 leukemia = system: MOLT-4 leukemia
T-47D breast = system: T-47D breast
HCC-2998 colon = system: HCC-2998 colon
UACC-257 melanoma = system: UACC-257 melanoma
IGROV1 ovarian = system: IGROV1 ovarian
NCI/ADR-RES ovarian = system: NCI/ADR-RES ovarian
SN12C renal = system: SN12C renal
OVCAR-3 ovarian = system: OVCAR-3 ovarian
PC-3 prostate = system: PC-3 prostate
MALME-3M melanoma = system: MALME-3M melanoma
SK-OV-3 ovarian = system: SK-OV-3 ovarian
LOX IMVI melanoma = system: LOX IMVI melanoma
SK-MEL-5 melanoma = system: SK-MEL-5 melanoma
MDA-MB-435 = system: MDA-MB-435
UO-31 renal = system: UO-31 renal
A549 NSCLC = system: A549 NSCLC
UACC-62 melanoma = system: UACC-62 melanoma
KM12 colon = system: KM12 colon
HCT-116 colon = system: HCT-116 colon
SK-MEL-2 melanoma = system: SK-MEL-2 melanoma
RXF 393 renal = system: RXF 393 renal
NCI-H522 lung = system: NCI-H522 lung
786-0 renal = system: 786-0 renal
OVCAR-5 ovarian = system: OVCAR-5 ovarian
MDA-MB-231 breast = system: MDA-MB-231 breast
OVCAR-4 ovarian = system: OVCAR-4 ovarian
U251 CNS = system: U251 CNS
OVCAR-8 ovarian = system: OVCAR-8 ovarian
HCT-15 colon = system: HCT-15 colon
HOP-92 NSCLC = system: HOP-92 NSCLC
M14 melanoma = system: M14 melanoma
MCF7 breast = system: MCF7 breast
A498 renal = system: A498 renal
NCI-H23 lung = system: NCI-H23 lung
SR leukemia = system: SR leukemia
NCI-H460 lung = system: NCI-H460 lung
K-562 leukemia = system: K-562 leukemia
EKVX NSCLC = system: EKVX NSCLC
SK-MEL-28 melanoma = system: SK-MEL-28 melanoma
SF-268 CNS = system: SF-268 CNS
CAKI-1 renal = system: CAKI-1 renal
COLO 205 colon = system: COLO 205 colon
SF-295 CNS = system: SF-295 CNS
HL-60(TB) leukemia = system: HL-60(TB) leukemia
SW-620 colon = system: SW-620 colon
TK-10 renal = system: TK-10 renal
BT-549 breast = system: BT-549 breast
DU-145 prostate = system: DU-145 prostate
MDA-MB-468 breast = system: MDA-MB-468 breast
HOP-62 NSCLC = system: HOP-62 NSCLC
SNB-19 CNS = system: SNB-19 CNS
SF-539 CNS = system: SF-539 CNS
NCI-H226 lung = system: NCI-H226 lung
ACHN renal = system: ACHN renal

## N#C/C(=C\c1ccc(N(c2ccccc2)c2ccccc2)cc1)C(N)=O
HT29 colon
  GI50: 16.9 µM
  TGI: > 100 µM
HS 578T breast
  GI50: 38.4 µM
  TGI: > 100 µM
SNB-75 CNS
  GI50: 19.8 µM
  TGI: > 93.9 µM
RPMI-8226 leukemia
  GI50: 12.4 µM
  TGI: > 100 µM
CCRF-CEM leukemia
  GI50: > 100 µM
  TGI: > 100 µM
MOLT-4 leukemia
  GI50: > 100 µM
  TGI: > 100 µM
T-47D breast
  GI50: 1.06 µM
  TGI: 5.27 µM
HCC-2998 colon
  GI50: > 64.1 µM
  TGI: > 100 µM
UACC-257 melanoma
  GI50: 0.839 µM
  TGI: 3.53 µM
IGROV1 ovarian
  GI50: 0.946 µM
  TGI: 4.64 µM
NCI/ADR-RES ovarian
  GI50: 21.6 µM
  TGI: > 100 µM
SN12C renal
  GI50: > 77.1 µM
  TGI: > 100 µM
OVCAR-3 ovarian
  GI50: 4.6 µM
  TGI: > 95.9 µM
PC-3 prostate
  GI50: > 69.8 µM
  TGI: > 100 µM
MALME-3M melanoma
  GI50: 42.9 µM
  TGI: > 100 µM
SK-OV-3 ovarian
  GI50: 25.3 µM
  TGI: > 100 µM
LOX IMVI melanoma
  GI50: > 89 µM
  TGI: > 100 µM
SK-MEL-5 melanoma
  GI50: 11 µM
  TGI: > 100 µM
MDA-MB-435
  GI50: > 100 µM
  TGI: > 100 µM
UO-31 renal
  GI50: 25.7 µM
  TGI: > 100 µM
A549 NSCLC
  GI50: 22.7 µM
  TGI: > 100 µM
UACC-62 melanoma
  GI50: 0.308 µM
  TGI: 1.37 µM
KM12 colon
  GI50: > 100 µM
  TGI: > 100 µM
HCT-116 colon
  GI50: 0.758 µM
  TGI: > 100 µM
SK-MEL-2 melanoma
  GI50: 29 µM
  TGI: > 100 µM
RXF 393 renal
  GI50: 1.33 µM
  TGI: 20.3 µM
NCI-H522 lung
  GI50: > 78.9 µM
  TGI: > 100 µM
786-0 renal
  GI50: 18 µM
  TGI: > 92.1 µM
OVCAR-5 ovarian
  GI50: 1.12 µM
  TGI: 3.07 µM
MDA-MB-231 breast
  GI50: > 72.5 µM
  TGI: > 100 µM
OVCAR-4 ovarian
  GI50: 2.28 µM
  TGI: 16.1 µM
U251 CNS
  GI50: 2.99 µM
  TGI: > 100 µM
OVCAR-8 ovarian
  GI50: 35.1 µM
  TGI: > 100 µM
HCT-15 colon
  GI50: > 100 µM
  TGI: > 100 µM
HOP-92 NSCLC
  GI50: 29.7 µM
  TGI: > 92.4 µM
M14 melanoma
  GI50: > 100 µM
  TGI: > 100 µM
MCF7 breast
  GI50: 0.661 µM
  TGI: > 100 µM
A498 renal
  GI50: 1.11 µM
  TGI: 2.61 µM
NCI-H23 lung
  GI50: 15.3 µM
  TGI: > 100 µM
SR leukemia
  GI50: > 100 µM
  TGI: > 100 µM
NCI-H460 lung
  GI50: 1.74 µM
  TGI: > 67.2 µM
K-562 leukemia
  GI50: 43.9 µM
  TGI: > 100 µM
EKVX NSCLC
  GI50: > 100 µM
  TGI: > 100 µM
SK-MEL-28 melanoma
  GI50: > 100 µM
  TGI: > 100 µM
SF-268 CNS
  GI50: 67.3 µM
  TGI: > 100 µM
CAKI-1 renal
  GI50: 0.308 µM
  TGI: 2.48 µM
COLO 205 colon
  GI50: 15.3 µM
  TGI: > 100 µM
SF-295 CNS
  GI50: 7.24 µM
  TGI: > 100 µM
HL-60(TB) leukemia
  GI50: > 100 µM
  TGI: > 100 µM
SW-620 colon
  GI50: 8.69 µM
  TGI: > 100 µM
TK-10 renal
  GI50: 0.797 µM
  TGI: 3.92 µM
BT-549 breast
  GI50: > 100 µM
  TGI: > 100 µM
DU-145 prostate
  GI50: > 100 µM
  TGI: > 100 µM
MDA-MB-468 breast
  GI50: 0.145 µM
  TGI: 0.351 µM
HOP-62 NSCLC
  GI50: 3.9 µM
  TGI: 31.5 µM
SNB-19 CNS
  GI50: 37.3 µM
  TGI: > 100 µM
SF-539 CNS
  GI50: 68 µM
  TGI: > 100 µM
NCI-H226 lung
  GI50: 0.24 µM
  TGI: 0.989 µM
ACHN renal
  GI50: 64.4 µM
  TGI: > 100 µM
